Assay results taken from publication PMC11589570, “Critical assessment of LC3/GABARAP ligands used for degrader development and ligandability of LC3/GABARAP binding pockets” (Nature Communications, 2024).
Read-outs that look alike come from different tables or passages of the source.

Molecular target: GABARAP (Homo sapiens, UniProt O95166)
Assay type: binding
Design: CSP induced: unit not given here
Settings: for CSP: GABARAP:TH152 molar ratio 1:2

GABARAP, sequence (O95166 1-116): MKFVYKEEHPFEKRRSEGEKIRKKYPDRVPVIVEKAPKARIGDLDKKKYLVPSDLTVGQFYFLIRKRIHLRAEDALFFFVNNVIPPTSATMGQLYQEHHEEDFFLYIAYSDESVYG

CCCCCCC(Sc1nc(Cl)cc(Nc2nc(-c3ccc(C(=O)O)cc3)cs2)n1)C(=O)O (centres unmarked) [compound 21]
CSP induced (F77 HN resonance, molar ratio TH152:GABARAP 0.125): 0.00585 | CSP induced (F77 HN resonance, molar ratio TH152:GABARAP 0.25): 0.01072 | CSP induced (F77 HN resonance, molar ratio TH152:GABARAP 0.5): 0.01977 | CSP induced (F77 HN resonance, molar ratio TH152:GABARAP 1): 0.04412 | CSP induced (F77 HN resonance, molar ratio TH152:GABARAP 2): 0.07555 | CSP induced (F77 HN resonance, molar ratio TH152:GABARAP 4): 0.08937 | interaction in 2D NMR titration (GABARAP): interacted with TH152 via the LDS binding site | CSP (GABARAP residue A36): 0.025 ppm | CSP (GABARAP residue A39): 0.019 ppm | CSP (GABARAP residue A72): 0.005 ppm | CSP (GABARAP residue A75): 0.00571 ppm | CSP (GABARAP residue A108): 0.038 ppm | CSP (GABARAP residue D27): 0.012 ppm | CSP (GABARAP residue D43): 0.019 ppm | CSP (GABARAP residue D45): 0.052 ppm | CSP (GABARAP residue D54): 0.019 ppm | CSP (GABARAP residue D74): 0.004 ppm | CSP (GABARAP residue D102): 0.027 ppm | CSP (GABARAP residue D111): 0.080 ppm | CSP (GABARAP residue E7, estimated): 0.005 ppm | CSP (GABARAP residue E8): 0.010 ppm | CSP (GABARAP residue E12): 0.005 ppm | CSP (GABARAP residue E17): 0.025 ppm | CSP (GABARAP residue E19): 0.021 ppm | CSP (GABARAP residue E34): 0.056 ppm | CSP (GABARAP residue E73): 0.015 ppm | CSP (GABARAP residue E97): 0.019 ppm | CSP (GABARAP residue E100): 0.010 ppm | CSP (GABARAP residue E101, estimated): 0.015 ppm | CSP (GABARAP residue E112): 0.029 ppm | CSP (GABARAP residue F3): 0.007 ppm | CSP (GABARAP residue F11): 0.00637 ppm | CSP (GABARAP residue F60): 0.060 ppm | CSP (GABARAP residue F62): 0.051 ppm | CSP (GABARAP residue F77): 0.076 ppm | CSP (GABARAP residue F78): 0.035 ppm | CSP (GABARAP residue F79): 0.034 ppm | CSP (GABARAP residue F103): 0.019 ppm | CSP (GABARAP residue F104): 0.027 ppm | CSP (GABARAP residue G18): 0.016 ppm | CSP (GABARAP residue G42): 0.033 ppm | CSP (GABARAP residue G58): 0.028 ppm | CSP (GABARAP residue G116): 0.011 ppm | CSP (GABARAP residue H9, estimated): 0.005 ppm | CSP (GABARAP residue H69): 0.044 ppm | CSP (GABARAP residue H98): 0.018 ppm | CSP (GABARAP residue H99): 0.035 ppm | CSP (GABARAP residue I21): 0.030 ppm | CSP (GABARAP residue I32): 0.077 ppm | CSP (GABARAP residue I41): 0.054 ppm | CSP (GABARAP residue I64): 0.020 ppm | CSP (GABARAP residue I68): 0.084 ppm | CSP (GABARAP residue I107): 0.011 ppm | CSP (GABARAP residue K2): 0.014 ppm | CSP (GABARAP residue K6, estimated): 0.005 ppm | CSP (GABARAP residue K13): 0.013 ppm | CSP (GABARAP residue K20): 0.009 ppm | CSP (GABARAP residue K23): 0.019 ppm | CSP (GABARAP residue K24): 0.039 ppm | CSP (GABARAP residue K35): 0.019 ppm | CSP (GABARAP residue K38): 0.015 ppm | CSP (GABARAP residue K46): 0.079 ppm | CSP (GABARAP residue K47): 0.091 ppm | CSP (GABARAP residue K48): 0.061 ppm | CSP (GABARAP residue K66): 0.014 ppm | CSP (GABARAP residue L44): 0.040 ppm | CSP (GABARAP residue L50): 0.088 ppm | CSP (GABARAP residue L55): 0.088 ppm | CSP (GABARAP residue L63): 0.085 ppm | CSP (GABARAP residue L70): 0.021 ppm | CSP (GABARAP residue L76): 0.043 ppm | CSP (GABARAP residue L105): 0.011 ppm | CSP (GABARAP residue M1): 0.016 ppm | CSP (GABARAP residue N81): 0.019 ppm | CSP (GABARAP residue P10, estimated): 0.005 ppm | CSP (GABARAP residue P26, estimated): 0.080 ppm | CSP (GABARAP residue P30, estimated): 0.060 ppm | CSP (GABARAP residue P37, estimated): 0.020 ppm | CSP (GABARAP residue P52, estimated): 0.030 ppm | CSP (GABARAP residue Q59): 0.033 ppm | CSP (GABARAP residue Q96): 0.025 ppm | CSP (GABARAP residue R14, estimated): 0.005 ppm | CSP (GABARAP residue R15, estimated): 0.005 ppm | CSP (GABARAP residue R22): 0.015 ppm | CSP (GABARAP residue R28): 0.021 ppm | CSP (GABARAP residue R40): 0.023 ppm | CSP (GABARAP residue R65): 0.067 ppm | CSP (GABARAP residue R67): 0.024 ppm | CSP (GABARAP residue R71): 0.007 ppm | CSP (GABARAP residue S16): 0.016 ppm | CSP (GABARAP residue S53): 0.013 ppm | CSP (GABARAP residue S110): 0.015 ppm | CSP (GABARAP residue S113): 0.021 ppm | CSP (GABARAP residue T56): 0.032 ppm | CSP (GABARAP residue V29): 0.058 ppm | CSP (GABARAP residue V31): 0.082 ppm | CSP (GABARAP residue V33): 0.031 ppm | CSP (GABARAP residue V51): 0.069 ppm | CSP (GABARAP residue V57): 0.065 ppm | CSP (GABARAP residue V80): 0.037 ppm | CSP (GABARAP residue V114): 0.00433 ppm | CSP (GABARAP residue Y25): 0.070 ppm | CSP (GABARAP residue Y49): 0.168 ppm | CSP (GABARAP residue Y61): 0.053 ppm | CSP (GABARAP residue Y106): 0.025 ppm | CSP (GABARAP residue Y109): 0.022 ppm | CSP (GABARAP residue Y115): 0.00181 ppm | CSP induced (K46 HN resonance, molar ratio TH152:GABARAP 0.125): 0.0126 | CSP induced (K46 HN resonance, molar ratio TH152:GABARAP 0.25): 0.02165 | CSP induced (K46 HN resonance, molar ratio TH152:GABARAP 0.5): 0.03932 | CSP induced (K46 HN resonance, molar ratio TH152:GABARAP 1): 0.07004 | CSP induced (K46 HN resonance, molar ratio TH152:GABARAP 2): 0.07915 | CSP induced (K46 HN resonance, molar ratio TH152:GABARAP 4): 0.08104 | CSP induced (Y25 HN resonance, molar ratio TH152:GABARAP 0.125): 0.00667 | CSP induced (Y25 HN resonance, molar ratio TH152:GABARAP 0.25): 0.01133 | CSP induced (Y25 HN resonance, molar ratio TH152:GABARAP 0.5): 0.01934 | CSP induced (Y25 HN resonance, molar ratio TH152:GABARAP 1): 0.03193 | CSP induced (Y25 HN resonance, molar ratio TH152:GABARAP 2): 0.06979 | CSP induced (Y25 HN resonance, molar ratio TH152:GABARAP 4): 0.08466
